{"source": "paper PMC8752738", "about": "“A propolis-derived small molecule ameliorates metabolic syndrome in obese mice by targeting the CREB/CRTC2 transcriptional complex” (Nature Communications, 2022)", "system": "tissue mRNA levels", "assay": "Quantitative PCR of tissue gene expression in treated mice", "assay_type": "in vivo, mouse", "set-up": "key to mRNA levels Scap / mRNA levels Insig1 / mRNA levels Ldlr / mRNA levels Mttp / mRNA levels Atgl / mRNA levels Tnfaip2 / mRNA levels Rxra / mRNA levels Srebf1 / mRNA levels Ucp2: mRNA level normalized to ribosomal L32 mRNA (internal control)", "protocol": "Total RNA from cells and tissues was extracted by Trizol (Invitrogen) and reverse-transcribed into cDNA using the prime script RT reagent kit with gDNA eraser (Takara). The mRNA levels were determined using the SYBR-green PCR kit (Takara) with ABIPRISM 7900HT Sequence detector (ABI) according to the manufacturer’s protocol. The quantitative qPCR primers used in this work are listed in Supplementary Table 1. Ribosomal L32 mRNA levels were used as an internal control.", "key": {"[1]": {"conditions": "Figure 6c, liver of DIO mice, individual animals"}, "[2]": {"conditions": "Figure 6e, BAT genes in DIO, individual animals"}, "[3]": {"conditions": "Figure 6e, group mean of APC-treated mice"}, "[4]": {"conditions": "Figure 6f, CRTC2KO mice, oral APC"}, "[5]": {"conditions": "Figure 6f, CRTC2KO mice, oral APC, group mean, N 6"}}, "note": "Where “and” joins values, the source holds several entries; their conditions need not be identical. Identical values can stand only once."}
{"smiles": "CC(C)=CCc1cc(C=CC(=O)O)cc(CC=C(C)C)c1O", "note": "[APC, 3,5-diprenyl-4-hydroxycinnamic acid]", "values": [{"measurement": "mRNA levels Insig2b", "setting": "[1]", "result": "1.5012 and 1.204 and 1.275 and 1.326 and 1.226 and 1.358"}, {"measurement": "mRNA levels Ldlr", "setting": "[1]", "result": "0.5776 and 0.5891 and 0.5493 and 0.4914 and 0.6354 and 0.4723"}, {"measurement": "mRNA levels Lipg", "setting": "[1]", "result": "1.701 and 1.759 and 1.656 and 1.597 and 1.253 and 1.321"}, {"measurement": "mRNA levels Lxra", "setting": "[1]", "result": "0.4169 and 0.5629 and 0.5095 and 0.7537 and 0.4614 and 0.533"}, {"measurement": "mRNA levels Mgll", "setting": "[1]", "result": "1.478 and 2.215 and 1.692 and 2.155 and 1.663 and 2.019"}, {"measurement": "mRNA levels Mttp", "setting": "[1]", "result": "0.5875 and 0.5564 and 0.479 and 0.4246 and 0.6126 and 0.6576"}, {"measurement": "mRNA levels Pcsk9", "setting": "[1]", "result": "0.8854 and 0.7972 and 0.6933 and 0.8757 and 0.803 and 0.7825"}, {"measurement": "mRNA levels Pgc-1a", "setting": "[1]", "result": "0.841 and 0.8137 and 0.7443 and 0.6176 and 0.7797 and 0.5053"}, {"measurement": "mRNA levels Pgc-1b", "setting": "[1]", "result": "0.6848 and 0.6024 and 0.8301 and 0.5369 and 0.6396 and 0.6129"}, {"measurement": "mRNA levels Scap", "setting": "[1]", "result": "0.7134 and 0.6924 and 0.8986 and 0.7526 and 0.8965 and 0.6035"}, {"measurement": "mRNA levels Scd1", "setting": "[1]", "result": "1.593 and 1.385 and 1.755 and 1.2873 and 1.57 and 1.603"}, {"measurement": "relative mRNA levels Cpt1, Difference (Mean of VEH - Mean of APC)", "setting": "Figure 6e", "result": -0.4965}, {"measurement": "relative mRNA levels Glut4, Difference (Mean of VEH - Mean of APC)", "setting": "Figure 6e", "result": -0.8396}, {"measurement": "relative mRNA levels Hsl, Difference (Mean of VEH - Mean of APC)", "setting": "Figure 6e", "result": -0.512}, {"measurement": "relative mRNA levels Mgl1, Difference (Mean of VEH - Mean of APC)", "setting": "Figure 6e", "result": -0.489}, {"measurement": "relative mRNA levels Pgc-1α, Difference (Mean of VEH - Mean of APC)", "setting": "Figure 6e", "result": 0.4001}, {"measurement": "relative mRNA levels Pgc-1β, Difference (Mean of VEH - Mean of APC)", "setting": "Figure 6e", "result": 0.2648}, {"measurement": "relative mRNA levels Scd1, Difference (Mean of VEH - Mean of APC)", "setting": "Figure 6e", "result": 0.2529}, {"measurement": "relative mRNA levels Ucp1, Difference (Mean of VEH - Mean of APC)", "setting": "Figure 6e", "result": 0.6029}, {"measurement": "relative mRNA levels Ucp2, Difference (Mean of VEH - Mean of APC)", "setting": "Figure 6e", "result": -0.7752}, {"measurement": "relative mRNA levels Ucp3, Difference (Mean of VEH - Mean of APC)", "setting": "Figure 6e", "result": -0.7811}, {"measurement": "mRNA levels Rxrα, Mean of APC", "setting": "Figure 6e, BAT genes in DIO, group mean, Mean of VEH 1.022", "result": 0.997}, {"measurement": "mRNA levels Pparγ, Mean of APC", "setting": "Figure 6e, BAT genes in DIO, group mean, Mean of VEH 1.045", "result": 1.136}, {"measurement": "mRNA levels Pparα, Mean of APC", "setting": "Figure 6e, BAT genes in DIO, group mean, Mean of VEH 1.047", "result": 1.002}, {"measurement": "mRNA levels Srebf-1c, Mean of APC", "setting": "Figure 6e, BAT genes in DIO, group mean, Mean of VEH 1.079", "result": 0.67}, {"measurement": "mRNA levels Cpt1", "setting": "[2]", "result": "1.405 and 1.301 and 1.366 and 1.861 and 1.273 and 1.67"}, {"measurement": "mRNA levels Glut4", "setting": "[2]", "result": "2.222 and 2.223 and 2.091 and 1.366 and 1.861 and 1.914"}, {"measurement": "mRNA levels Hsl", "setting": "[2]", "result": "1.929 and 1.285 and 1.044 and 1.492 and 1.691 and 1.784"}, {"measurement": "mRNA levels Mgl1", "setting": "[2]", "result": "1.571 and 1.671 and 1.448 and 1.19 and 1.394 and 1.429"}, {"measurement": "mRNA levels Pgc-1a", "setting": "[2]", "result": "0.4882 and 0.6962 and 0.7342 and 0.6823 and 0.3242 and 0.5895"}, {"measurement": "mRNA levels Pgc-1b", "setting": "[2]", "result": "0.7936 and 0.7877 and 0.8205 and 0.6233 and 0.5976 and 0.7915"}, {"measurement": "mRNA levels Ppara", "setting": "[2]", "result": "0.957 and 1.069 and 1.282 and 0.4348 and 0.8215 and 1.448"}, {"measurement": "mRNA levels Pparg", "setting": "[2]", "result": "1.223 and 1.057 and 1.279 and 0.9002 and 1.182 and 1.178"}, {"measurement": "mRNA levels Rxra", "setting": "[2]", "result": "1.299 and 0.7585 and 0.6344 and 1.152 and 1.145 and 0.9935"}, {"measurement": "mRNA levels Scd1", "setting": "[2]", "result": "0.7542 and 0.5583 and 0.6317 and 0.6691 and 0.5321 and 0.7971"}, {"measurement": "mRNA levels Srebf1", "setting": "[2]", "result": "0.76 and 0.6196 and 0.6214 and 0.595 and 0.7194 and 0.7042"}, {"measurement": "mRNA levels Ucp1", "setting": "[2]", "result": "0.4272 and 0.4661 and 0.4353 and 0.3244 and 0.4398 and 0.6531"}, {"measurement": "mRNA levels Ucp2", "setting": "[2]", "result": "1.948 and 2.049 and 1.871 and 1.366 and 1.861 and 1.31"}, {"measurement": "mRNA levels Ucp3", "setting": "[2]", "result": "2.385 and 1.61 and 1.317 and 1.964 and 1.366 and 1.861"}, {"measurement": "relative mRNA levels Cpt1, Mean of APC", "setting": "[3]", "result": 1.479}, {"measurement": "relative mRNA levels Glut4, Mean of APC", "setting": "[3]", "result": 1.946}, {"measurement": "relative mRNA levels Hsl, Mean of APC", "setting": "[3]", "result": 1.538}, {"measurement": "relative mRNA levels Mgl1, Mean of APC", "setting": "[3]", "result": 1.451}, {"measurement": "relative mRNA levels Pgc-1α, Mean of APC", "setting": "[3]", "result": 0.5858}, {"measurement": "relative mRNA levels Pgc-1β, Mean of APC", "setting": "[3]", "result": 0.7357}, {"measurement": "relative mRNA levels Scd1, Mean of APC", "setting": "[3]", "result": 0.6571}, {"measurement": "relative mRNA levels Ucp1, Mean of APC", "setting": "[3]", "result": 0.4576}, {"measurement": "relative mRNA levels Ucp2, Mean of APC", "setting": "[3]", "result": 1.734}, {"measurement": "relative mRNA levels Ucp3, Mean of APC", "setting": "[3]", "result": 1.751}, {"measurement": "mRNA of Srebf-1c, Mean Diff. APC - VEH", "setting": "[4]", "result": 0.1559}, {"measurement": "mRNA of Srebf-2, Mean Diff. APC - VEH", "setting": "[4]", "result": -0.03887}, {"measurement": "mRNA of Srebf-1c, Mean 1 (APC)", "setting": "[5]", "result": 0.6887}, {"measurement": "mRNA of Srebf-2, Mean 1 (APC)", "setting": "[5]", "result": 0.7827}]}
